Key:
[1] = molecular target: T1, Androgen receptor (Homo sapiens, UniProt P10275); test: Binding affinity against Androgen receptor transfected into COS cells
T1 sequence (P10275 whole entry): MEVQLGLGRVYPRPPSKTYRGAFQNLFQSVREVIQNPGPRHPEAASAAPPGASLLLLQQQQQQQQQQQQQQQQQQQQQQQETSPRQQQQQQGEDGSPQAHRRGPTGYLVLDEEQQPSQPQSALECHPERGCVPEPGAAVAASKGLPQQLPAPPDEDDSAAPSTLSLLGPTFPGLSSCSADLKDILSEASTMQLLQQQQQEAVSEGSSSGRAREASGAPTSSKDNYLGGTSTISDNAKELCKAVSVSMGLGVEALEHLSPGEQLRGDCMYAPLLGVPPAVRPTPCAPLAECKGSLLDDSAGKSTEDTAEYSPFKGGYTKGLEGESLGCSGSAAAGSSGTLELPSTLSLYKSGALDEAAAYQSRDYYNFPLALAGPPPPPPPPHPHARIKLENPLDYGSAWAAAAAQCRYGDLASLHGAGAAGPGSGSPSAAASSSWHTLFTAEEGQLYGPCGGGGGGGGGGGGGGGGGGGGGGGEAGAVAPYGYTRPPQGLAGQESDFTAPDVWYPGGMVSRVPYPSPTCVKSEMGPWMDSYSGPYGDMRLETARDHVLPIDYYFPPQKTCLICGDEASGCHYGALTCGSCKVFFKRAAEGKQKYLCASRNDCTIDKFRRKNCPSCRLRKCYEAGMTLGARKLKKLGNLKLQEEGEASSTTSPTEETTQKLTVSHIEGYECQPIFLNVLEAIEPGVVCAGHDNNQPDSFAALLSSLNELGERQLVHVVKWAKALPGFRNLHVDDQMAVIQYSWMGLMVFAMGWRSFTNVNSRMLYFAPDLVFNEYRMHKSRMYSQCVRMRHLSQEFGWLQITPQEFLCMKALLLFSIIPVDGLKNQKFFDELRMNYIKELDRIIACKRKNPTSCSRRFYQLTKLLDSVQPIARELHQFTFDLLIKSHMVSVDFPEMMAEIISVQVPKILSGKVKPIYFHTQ

[2] = molecular target: T1, Androgen receptor
[3] = molecular target: T1, Androgen receptor; test: Agonistic activity (EC50) against human androgen receptor (hAR) in co-transfected CV-1 cell; type: functional, cell-based
[4] = molecular target: T1, Androgen receptor; test: Antagonistic activity (IC50) against human androgen receptor (hAR) in co-transfected CV-1 cell; type: functional, cell-based
[5] = molecular target: T1, Androgen receptor; settings: cv-1
Description: Agonistic activity against human androgen receptor (hAR) in co-transfected CV-1 cell

[6] = molecular target: T1, Androgen receptor; test: Binding affinity against hAR androgen receptor expressed in COS cells; type: cell-based
[7] = molecular target: T2, Glucocorticoid receptor (Homo sapiens) (UniProt P04150); test: (§1) Antagonistic activity against Glucocorticoid receptor in co-transfected CV-1 cell; type: functional, cell-based
T2 sequence (whole entry): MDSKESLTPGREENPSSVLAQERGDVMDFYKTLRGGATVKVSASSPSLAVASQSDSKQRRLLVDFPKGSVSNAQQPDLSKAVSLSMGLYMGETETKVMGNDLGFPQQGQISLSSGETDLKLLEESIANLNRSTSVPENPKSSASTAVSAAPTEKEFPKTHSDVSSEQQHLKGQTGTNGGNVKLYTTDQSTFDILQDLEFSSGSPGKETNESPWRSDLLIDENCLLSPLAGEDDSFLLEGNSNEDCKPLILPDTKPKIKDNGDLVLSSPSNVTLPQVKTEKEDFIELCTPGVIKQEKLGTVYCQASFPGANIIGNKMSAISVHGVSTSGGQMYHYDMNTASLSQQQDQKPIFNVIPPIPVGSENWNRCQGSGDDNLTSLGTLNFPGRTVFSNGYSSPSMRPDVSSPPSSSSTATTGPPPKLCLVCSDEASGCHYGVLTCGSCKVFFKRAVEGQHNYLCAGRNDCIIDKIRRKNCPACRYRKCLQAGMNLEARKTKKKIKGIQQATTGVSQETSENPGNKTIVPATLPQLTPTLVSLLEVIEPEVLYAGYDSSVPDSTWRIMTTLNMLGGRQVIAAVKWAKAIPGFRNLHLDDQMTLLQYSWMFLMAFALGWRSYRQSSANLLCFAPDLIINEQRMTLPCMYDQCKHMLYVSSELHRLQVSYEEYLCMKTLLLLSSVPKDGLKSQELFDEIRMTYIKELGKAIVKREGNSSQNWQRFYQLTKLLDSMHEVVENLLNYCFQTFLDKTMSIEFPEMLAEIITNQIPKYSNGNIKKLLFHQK

[8] = molecular target: T3, Estrogen receptor (Homo sapiens, UniProt Q92731+P03372); test: (§2) Antagonistic activity against Estrogen receptor in co-transfected CV-1 cell; type: functional, cell-based
[9] = molecular target: T4, Progesterone receptor (Homo sapiens, UniProt P06401); test: (§3) Antagonistic activity against hPR in co-transfected CV-1 cell; type: functional, cell-based
T4 sequence (P06401 whole entry): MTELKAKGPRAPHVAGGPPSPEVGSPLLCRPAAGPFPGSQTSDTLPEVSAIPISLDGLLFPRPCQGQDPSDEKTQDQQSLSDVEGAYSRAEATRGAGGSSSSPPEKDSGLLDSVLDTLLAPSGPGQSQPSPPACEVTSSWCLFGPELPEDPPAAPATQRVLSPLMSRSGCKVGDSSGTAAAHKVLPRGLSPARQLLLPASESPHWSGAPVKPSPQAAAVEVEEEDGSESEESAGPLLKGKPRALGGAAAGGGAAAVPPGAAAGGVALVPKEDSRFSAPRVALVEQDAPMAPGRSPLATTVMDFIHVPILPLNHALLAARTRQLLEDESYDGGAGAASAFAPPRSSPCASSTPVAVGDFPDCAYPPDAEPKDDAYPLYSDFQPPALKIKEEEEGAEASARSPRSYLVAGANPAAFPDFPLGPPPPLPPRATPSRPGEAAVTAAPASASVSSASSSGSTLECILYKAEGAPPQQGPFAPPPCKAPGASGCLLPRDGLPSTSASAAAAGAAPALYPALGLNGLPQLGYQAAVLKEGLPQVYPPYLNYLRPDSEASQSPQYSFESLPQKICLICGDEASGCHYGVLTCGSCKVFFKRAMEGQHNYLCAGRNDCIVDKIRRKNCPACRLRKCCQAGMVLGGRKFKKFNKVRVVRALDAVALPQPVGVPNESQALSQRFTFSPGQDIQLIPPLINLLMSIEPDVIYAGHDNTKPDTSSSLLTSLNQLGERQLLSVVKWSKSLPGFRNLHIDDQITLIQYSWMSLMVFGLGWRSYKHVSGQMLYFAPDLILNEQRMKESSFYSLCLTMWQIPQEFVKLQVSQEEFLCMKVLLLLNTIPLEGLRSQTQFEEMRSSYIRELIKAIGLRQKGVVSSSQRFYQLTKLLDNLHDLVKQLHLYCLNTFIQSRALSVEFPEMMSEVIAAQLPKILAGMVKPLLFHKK

[10] = molecular target: T5, Mineralocorticoid receptor (Homo sapiens, UniProt P08235); test: (§4) Antagonistic activity against hMR in co-transfected CV-1 cell; type: functional, cell-based
T5 sequence (P08235 whole entry): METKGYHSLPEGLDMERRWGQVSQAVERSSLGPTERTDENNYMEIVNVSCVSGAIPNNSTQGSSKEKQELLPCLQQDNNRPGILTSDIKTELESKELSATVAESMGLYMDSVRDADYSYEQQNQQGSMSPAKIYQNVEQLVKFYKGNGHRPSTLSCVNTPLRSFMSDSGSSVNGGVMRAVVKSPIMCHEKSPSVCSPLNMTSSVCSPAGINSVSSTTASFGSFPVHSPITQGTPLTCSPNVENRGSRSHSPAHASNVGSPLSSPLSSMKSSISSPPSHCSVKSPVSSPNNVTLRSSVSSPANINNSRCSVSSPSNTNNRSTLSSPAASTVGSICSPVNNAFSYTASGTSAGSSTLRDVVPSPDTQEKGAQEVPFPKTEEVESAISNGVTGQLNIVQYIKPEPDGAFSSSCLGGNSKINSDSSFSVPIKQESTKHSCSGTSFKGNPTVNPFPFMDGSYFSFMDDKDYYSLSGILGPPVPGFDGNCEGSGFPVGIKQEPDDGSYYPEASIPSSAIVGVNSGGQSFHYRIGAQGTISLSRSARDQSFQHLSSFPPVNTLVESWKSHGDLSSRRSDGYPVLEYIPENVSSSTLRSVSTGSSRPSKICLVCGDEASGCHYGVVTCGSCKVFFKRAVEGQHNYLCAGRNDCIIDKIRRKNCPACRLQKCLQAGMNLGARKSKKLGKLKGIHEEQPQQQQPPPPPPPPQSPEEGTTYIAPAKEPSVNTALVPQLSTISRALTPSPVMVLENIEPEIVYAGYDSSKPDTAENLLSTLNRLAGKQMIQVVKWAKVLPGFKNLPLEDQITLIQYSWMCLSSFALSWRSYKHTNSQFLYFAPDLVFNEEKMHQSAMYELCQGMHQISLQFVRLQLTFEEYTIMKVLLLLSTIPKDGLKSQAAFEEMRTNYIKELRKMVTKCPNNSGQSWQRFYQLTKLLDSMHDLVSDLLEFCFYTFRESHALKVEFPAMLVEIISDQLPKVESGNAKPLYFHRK

[11] = molecular target: T6, Mineralocorticoid receptor (Homo sapiens) (UniProt P08235); test: as §4; type: functional, cell-based
T6 sequence (whole entry): T5 sequence (P08235 whole entry)

[12] = molecular target: T3, Estrogen receptor; test: as §2; type: functional, cell-based; remark: listed apart in the source
[13] = molecular target: T7, Progesterone receptor (Homo sapiens) (UniProt P06401); test: as §3; type: functional, cell-based
T7 sequence (whole entry): T4 sequence (P06401 whole entry)

[14] = molecular target: T8, Glucocorticoid receptor (Homo sapiens, UniProt P04150); test: as §1; type: functional, cell-based
T8 sequence (P04150 whole entry): T2 sequence (whole entry)

SMILES	Ki [1] [nM]	IC50 [2] [nM]	EC50 [3] [nM]	IC50 [4]	further results
CC1(C)CNc2cc3nc(O)cc(C(F)(F)F)c3cc21	28	10	42	–	–
C[C@H]1Nc2cc3[nH]c(=O)cc(C(F)(F)F)c3cc2C1(C)C	21	48	99	–	–
Cn1c(=O)cc(C(F)(F)F)c2cc3c(cc21)N[C@@H]1CCCC[C@]31C	9	–	33	Not Active	–
Cn1c(=O)cc(C(F)(F)F)c2cc3c(cc21)NCC3	–	56	–	–	EC50 [5]: Not Active; Ki [6]: 61 nM
CN1c2cc3c(cc2[C@@]2(C)CCCC[C@@H]12)c(C(F)(F)F)cc(=O)n3C	97	53	–	–	EC50 [5]: Not Active
C[C@@H]1Cc2cc3c(C(F)(F)F)cc(O)nc3cc2N1	10	7	168	–	Efficacy [7]: < 20%; Efficacy [8]: < 20%; IC50 [9]: 750 nM; IC50 [10]: > 10000 nM; Efficacy [11]: < 20%; IC50 [12]: > 10000 nM; Efficacy [13]: 89%; IC50 [14]: > 10000 nM
C[C@@H]1c2cc3c(C(F)(F)F)cc(O)nc3cc2N[C@@H]1C	6	–	5	Not Active	Efficacy [7]: 35%; Efficacy [8]: < 20%; IC50 [9]: 1900 nM; IC50 [10]: 2000 nM; Efficacy [11]: 29%; IC50 [12]: > 10000 nM; Efficacy [13]: 88%; IC50 [14]: 2500 nM
C[C@@H]1c2cc3c(C(F)(F)F)cc(=O)n(C)c3cc2N[C@@H]1C	10	9180	15	–	–
C[C@H]1CC[C@H]2Nc3cc4nc(O)cc(C(F)(F)F)c4cc3[C@H]2C1	23	–	64	Not Active	–
C[C@@H]1CNc2cc3nc(O)cc(C(F)(F)F)c3cc21	17	–	62	Not Active	–
C[C@H]1Nc2cc3c(cc2C1(C)C)c(C(F)(F)F)cc(=O)n3C	9	22	380	–	–
C[C@]12CCCC[C@H]1Nc1cc3[nH]c(=O)cc(C(F)(F)F)c3cc12	21	–	25	–	IC50 [9]: 730 nM; IC50 [10]: 1900 nM; IC50 [14]: 2100 nM
CCCN1c2cc3c(cc2[C@H]2CCCC[C@H]21)c(C(F)(F)F)cc(=O)n3C	63	27	324	–	–
CCn1c(=O)cc(C(F)(F)F)c2cc3c(cc21)N[C@@H]1CCCC[C@H]31	194	230	–	–	EC50 [5]: Not Active
C[C@H]1CC[C@@H]2[C@H](C1)c1cc3c(C(F)(F)F)cc(=O)n(C)c3cc1N2C	78	54	–	–	EC50 [5]: Not Active
C[C@]12CCCC[C@H]1Nc1cc3nc(O)cc(C(F)(F)F)c3cc12	–	–	–	Not Active	Efficacy [7]: 43%; Efficacy [8]: < 20%; Efficacy [11]: 43%; IC50 [12]: > 10000 nM; Efficacy [13]: 96%
C[C@H]1N(C)c2cc3c(cc2C1(C)C)c(C(F)(F)F)cc(=O)n3C	33	56	–	–	EC50 [5]: Not Active
C[C@@H]1Cc2cc3c(C(F)(F)F)cc(=O)n(C)c3cc2N1	9	–	20	Not Active	–
Oc1cc(C(F)(F)F)c2cc3c(cc2n1)N[C@@H]1CCCC[C@H]31	5	–	5	Not Active	Efficacy [7]: 33%; Efficacy [8]: < 20%; IC50 [9]: 170 nM; IC50 [10]: 2000 nM; Efficacy [11]: 54%; IC50 [12]: > 10000 nM; Efficacy [13]: 91%; IC50 [14]: 5800 nM
Cn1c(=O)cc(C(F)(F)F)c2cc3c(cc21)N[C@@H]1CCCC[C@H]31	4	–	10	Not Active	Efficacy [7]: 39%; Efficacy [8]: < 20%; IC50 [9]: 150 nM; IC50 [10]: 2900 nM; Efficacy [11]: 58%; IC50 [12]: > 10000 nM; Efficacy [13]: 99%; IC50 [14]: 3000 nM
